# Laboratory results: patent US9316633B2, “Methods for identifying inhibitors of solute transporters” (The Regents of the University of California, priority 2006, dated 2016)
# Molecular target: T1, UT-B (Homo sapiens, UniProt Q13336)
# T1 construct: the indicator cells are red blood cells that endogenously express the UT-B urea transporter; endogenous in cells; host or cells: human red blood cells (whole venous blood, single donor)
# T1 sequence (Q13336 1-389): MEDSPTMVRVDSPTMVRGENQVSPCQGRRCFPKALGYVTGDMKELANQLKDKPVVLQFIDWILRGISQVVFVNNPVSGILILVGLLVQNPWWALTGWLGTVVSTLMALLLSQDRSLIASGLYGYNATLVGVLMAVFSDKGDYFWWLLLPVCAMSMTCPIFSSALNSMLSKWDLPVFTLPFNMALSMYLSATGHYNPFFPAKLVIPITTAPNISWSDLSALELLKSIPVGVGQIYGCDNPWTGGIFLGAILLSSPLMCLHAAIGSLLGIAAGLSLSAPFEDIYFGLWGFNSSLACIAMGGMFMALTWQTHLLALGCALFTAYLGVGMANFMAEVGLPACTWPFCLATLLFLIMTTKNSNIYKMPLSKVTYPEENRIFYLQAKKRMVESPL
# Test: RBC lysis assay, human RBCs loaded with acetamide
# Assay type: cell-based
# Conditions: Table 5, phthalazinamines; UT-B inhibitory potency
row,SMILES,EC50 [nM]
1,"COc1ccc(Nc2nnc(-c3ccc(C(N)=O)cc3)c3ccccc23)cc1 [ureainh-301, 4-(4-(4-methoxyphenylamino)phthalazin-1-yl)benzamide]",100
2,"CN(C)C(=O)c1ccc(Nc2nnc(-c3ccc(C(N)=O)cc3)c3ccccc23)cc1 [ureainh-303, 4-(4-(4-carbamoylphenyl)phthalazin-1-ylamino)-N,N-dimethylbenzamide]",200
3,"CNC(=O)c1ccc(Nc2nnc(-c3ccc(C(N)=O)cc3)c3ccccc23)cc1 [ureainh-304, 4-(4-(4-carbamoylphenyl)phthalazin-1-ylamino)-N-methylbenzamide]",600
4,"NC(=O)c1ccc(-c2nnc(Nc3ccc(O)cc3)c3ccccc23)cc1 [ureainh-306, 4-(4-(4-hydroxyphenylamino)phthalazin-1-yl)benzamide]",2000
5,"NC(=O)c1ccc(-c2nnc(Nc3ccc(S(N)(=O)=O)cc3)c3ccccc23)cc1 [ureainh-307, 4-(4-(4-sulfamoylphenylamino)phthalazin-1-yl)benzamide]",3000
6,"CCN(CC)C(=O)c1ccc(-c2nnc(Nc3ccc(C(=O)NC)cc3)c3ccccc23)cc1 [ureainh-308, N,N-diethyl-4-(4-(4-(methylcarbamoyl)phenylamino)phthalazin-1-yl)benzamide]",2000
7,"CCN(CC)C(=O)c1ccc(-c2nnc(Nc3ccc(O)cc3)c3ccccc23)cc1 [ureainh-309, N,N-diethyl-4-(4-(4-hydroxyphenylamino)phthalazin-1-yl)benzamide]",5000
8,"CCN(CC)C(=O)c1ccc(-c2nnc(Nc3ccc(C(=O)N(C)C)cc3)c3ccccc23)cc1 [ureainh-310, 4-(4-(4-(diethylcarbamoyl)phenyl)phthalazin-1-ylamino)-N,N-dimethylbenzamide]",3000
9,"CNC(=O)COc1ccc(Nc2nnc(-c3ccc(C(=O)NCCO)cc3)c3ccccc23)cc1 [ureainh-311, N-(2-hydroxyethyl)-4-(4-(4-(2-(methylamino)-2-oxoethoxy)phenylamino)phthalazin-1-yl)benzamide]",800
10,"COc1ccc(-c2nnc(Nc3ccc(OCC(N)=O)cc3)c3ccccc23)cc1 [ureainh-312, 2-(4-(4-(4-methoxyphenyl)phthalazin-1-ylamino)phenoxy)acetamide]",1000
11,"COc1ccc(-c2nnc(Nc3ccc(-c4nc5ccccc5[nH]4)cc3)c3ccccc23)cc1 [ureainh-313, N-(4-(1H-benzo[d]imidazol-2-yl)phenyl)-4-(4-methoxyphenyl) phthalazin-1-amine]",10000
12,"Cc1ccc(-c2nnc(Nc3ccc(OCC(N)=O)cc3)c3ccccc23)cc1 [ureainh-314, 2-(4-(4-p-tolylphthalazin-1-ylamino)phenoxy) acetamide]",2000
13,"CNC(=O)COc1ccc(Nc2nnc(-c3ccc(C)cc3)c3ccccc23)cc1 [ureainh-315, N-methyl-2-(4-(4-p-tolylphthalazin-1-ylamino)phenoxy)acetamide]",2000
14,"COc1ccc(Nc2nnc(-c3ccc(O)cc3)c3ccccc23)cc1 [ureainh-316, 4-(4-(4-methoxyphenylamino)phthalazin-1-yl)phenol]",2000
15,"CC(=O)Nc1ccc(Nc2nnc(-c3ccc(O)cc3)c3ccccc23)cc1 [ureainh-317, N-(4-(4-(4-hydroxyphenyl)phthalazin-1-ylamino)phenyl)acetamide]",3000
16,"NC(=O)COc1ccc(Nc2nnc(-c3ccccc3)c3ccccc23)cc1 [ureainh-318, 2-(4-(4-phenylphthalazin-1-ylamino)phenoxy) acetamide]",2000
17,"CNC(=O)COc1ccc(Nc2nnc(-c3ccccc3)c3ccccc23)cc1 [ureainh-319, N-methyl-2-(4-(4-phenylphthalazin-1-ylamino)phenoxy)acetamide]",3000
18,"COc1ccc(Nc2nnc(-c3ccccc3)c3ccccc23)cc1 [ureainh-320, N-(4-methoxyphenyl)-4-phenylphthalazin-1-amine]",4000
19,"Cc1ccc(-c2nnc(Nc3ccc(C(N)=O)cc3)c3ccccc23)cc1S(=O)(=O)N(C)C [ureainh-321, 4-(4-(3-(N,N-dimethylsulfamoyl)-4-methylphenyl)phthalazin-1-ylamino) benzamide]",1000
20,"Cc1ccc(-c2nnc(Nc3ccc(OCC(N)=O)cc3)c3ccccc23)cc1S(=O)(=O)N(C)C [ureainh-322, 2-(4-(4-(3-(N,N-dimethylsulfamoyl)-4-methylphenyl)phthalazin-1-ylamino)phenoxy)acetamide]",2000
21,"COC(=O)c1ccc(Nc2nnc(-c3ccc(C)c(S(=O)(=O)NCCO)c3)c3ccccc23)cc1 [ureainh-323, methyl 4-(4-(3-(N-(2-hydroxyethyl)sulfamoyl)-4-methylphenyl)phthalazin-1-ylamino) benzoate]",2000
22,"Cc1ccc(-c2nnc(Nc3ccc(C(N)=O)cc3)c3ccccc23)cc1S(=O)(=O)NCCO [ureainh-324, 4-(4-(3-(N-(2-hydroxyethyl)sulfamoyl)-4-methylphenyl)phthalazin-1-ylamino) benzamide]",5000
23,"CNS(=O)(=O)c1cc(-c2nnc(Nc3ccc(OCC(N)=O)cc3)c3ccccc23)ccc1C [ureainh-325, 2-(4-(4-(4-methyl-3-(N-methylsulfamoyl)phenyl)phthalazin-1-ylamino)phenoxy)acetamide]",2000
24,"CNC(=O)COc1ccc(Nc2nnc(-c3ccc(C)c(S(=O)(=O)NC)c3)c3ccccc23)cc1 [ureainh-326, N-methyl-2-(4-(4-(4-methyl-3-(N-methylsulfamoyl)phenyl)phthalazin-1-ylamino)phenoxy) acetamide]",2000

# Other lines, results leading:
row,EC50 [nM],SMILES
1,3000,"Cc1ccc(-c2nnc(Nc3ccc(O)cc3)c3ccccc23)cc1S(=O)(=O)N1CCOCC1 [ureainh-328, 4-(4-(4-methyl-3-(morpholinosulfonyl)phenyl)phthalazin-1-ylamino)phenol]"
2,5000,"Cc1ccc(-c2nnc(Nc3ccc(C(N)=O)cc3)c3ccccc23)cc1S(N)(=O)=O [ureainh-329, 4-(4-(4-methyl-3-sulfamoylphenyl)phthalazin-1-ylamino) benzamide]"
3,10000,"CNC(=O)COc1ccc(Nc2nnc(-c3ccc(C)c(S(N)(=O)=O)c3)c3ccccc23)cc1 [ureainh-330, N-methyl-2-(4-(4-(4-methyl-3-sulfamoylphenyl)phthalazin-1-ylamino)phenoxy)acetamide]"
4,9000,"Cc1ccc(-c2nnc(Nc3ccc(O)cc3)c3ccccc23)cc1S(=O)(=O)NC(C)(C)CO [ureainh-331, N-(1-hydroxy-2-methylpropan-2-yl)-5-(4-(4-hydroxyphenylamino)phthalazin-1-yl)-2-methylbenzenesulfonamide]"
5,2000,"COc1ccc(-c2nnc(Oc3ccccc3)c3ccccc23)cc1 [ureainh-332, 1-(4-methoxyphenyl)-4-phenoxyphthalazine]"
6,3000,"Cc1ccc(-c2nnc(Oc3ccccc3)c3ccccc23)cc1 [ureainh-333, 1-phenoxy-4-p-tolylphthalazine]"

# Same assay, conditions: Table 7, aminobenzimidazoles; UT-B inhibitory potency
row,EC50 [nM],SMILES
1,300,"CCCn1c(NCc2cc(Cl)ccc2O)nc2ccccc21 [ureainh-401, 4-chloro-2-((1-propyl-1H-benzo[d]imidazol-2-ylamino)methyl)phenol]"
2,400,"CCn1c(NCc2cc(Cl)ccc2O)nc2ccccc21 [ureainh-402, 4-chloro-2-((1-ethyl-1H-benzo[d]imidazol-2-ylamino)methyl)phenol]"
3,5000,"CC(C)n1c(NCc2cc(Cl)ccc2O)nc2ccccc21 [ureainh-403, 4-chloro-2-((1-isopropyl-1H-benzo[d]imidazol-2-ylamino)methyl)phenol]"
4,400,"CC(C)n1c(NCc2cc(Br)ccc2O)nc2ccccc21 [ureainh-405, 4-bromo-2-((1-isopropyl-1H-benzo[d]imidazol-2-ylamino)methyl)phenol]"
5,1000,"C=CCn1c(NCc2cc(Br)ccc2O)nc2ccccc21 [ureainh-406, 2-((1-allyl-1H-benzo[d]imidazol-2-ylamino)methyl)-4-bromophenol]"
6,800,"CCN(CC)CCn1c(NCc2ccccc2O)nc2ccccc21 [ureainh-407, 2-((1-(2-(diethylamino)ethyl)-1H-benzo[d]imidazol-2-ylamino)methyl)phenol]"
7,900,"Oc1ccccc1CNc1nc2ccccc2n1CCN1CCCCC1 [ureainh-408, 2-((1-(2-(piperidin-1-yl)ethyl)-1H-benzo[d]imidazol-2-ylamino)methyl)phenol]"
8,6000,"Oc1ccccc1CNc1nc2ccccc2n1CCN1CCOCC1 [ureainh-412, 2-((1-(2-morpholinoethyl)-1H-benzo[d]imidazol-2-ylamino)methyl)phenol]"
9,1000,"CCCn1c(NCc2cc(C)ccc2O)nc2ccccc21 [ureainh-414, 4-methyl-2-((1-propyl-1H-benzo[d]imidazol-2-ylamino)methyl)phenol]"
10,1000,"Cc1ccc(O)c(CNc2nc3ccccc3n2C(C)C)c1 [ureainh-415, 2-((1-isopropyl-1H-benzo[d]imidazol-2-ylamino)methyl)-4-methylphenol]"
11,1000,"CCn1c(NCc2cc(C)ccc2O)nc2ccccc21 [ureainh-416, 2-((1-ethyl-1H-benzo[d]imidazol-2-ylamino)methyl)-4-methylphenol]"
12,2000,"CCCCn1c(NCc2cc(C)ccc2O)nc2ccccc21 [ureainh-417, 2-((1-butyl-1H-benzo[d]imidazol-2-ylamino)methyl)-4-methylphenol]"
13,6000,"CCCn1c(NCc2cc(OC)ccc2O)nc2ccccc21 [ureainh-418, 4-methoxy-2-((1-propyl-1H-benzo[d]imidazol-2-ylamino)methyl)phenol]"
